Patent US20120183614A1, “POLYPHENOL COMPOUND ABSORPTION PROMOTER AND UTILIZATION OF SAME” (priority 2009, published 2012)

What was measured:
Caco-2 cells = test: In vitro EGCG absorption measurement system, Caco-2 cell monolayer on Transwell (Papp of EGCG, chorionic to serosal side)
Description: An orally-ingested polyphenol compound, in particular, catechin compound is considered to be absorbed mainly in the intestinal tract, especially the small intestine in the body. […]
The Caco-2 cells were cultured in the presence of humidified air containing 5% CO2 in a Dulbecco's modified Eagle medium (DMEM, pH 7.4; manufactured by GIBCO) containing 10% inactivated fetal bovine serum (manufactured by HyClone), 50 U/mL penicillin-50 μg/mL streptomycin (manufactured by GIBCO), and a 1% non-essential amino acid (manufactured by GIBCO) in a plastic flask of 75 cm^2. The cells were maintained by performing subculture every 5 to 8 days when the cells reached 80 to 90% confluence. An EGCG absorption experiment to be described below was performed using Caco-2 cells which had been subcultured 30 to 70 times.
The EGCG absorption experiment was performed using a Caco-2 cell monolayer cultured on a Transwell with a diameter of 12 mm (polycarbonate filter culture area: 1.13 cm^2, pore size: 0.4 μm; manufactured by Corning). […] Transepithelial electrical resistance (hereinafter, referred to as “TEER”) was measured using a Millicell ERS meter (manufactured by Millipore) to monitor the degree of completion of a tight junction of the cell monolayer, and a monolayer which had been confirmed that formation of the tight junction had been completed was used in the experiment. […]

[1] = EGCG in rat plasma after oral administration of green tea extract solution with serine and malic acid (Test Example 4); assay type: in vivo, rats; conditions: rat plasma after administration solutions (i) to (iv)
Description: The final EGCG concentration derived from the green tea extract contained in each administration solution was adjusted to 1 mM. […] During the recuperation period, the rats were fed individually in cages equipped with floor nets and allowed to ingest CE-2 feed (manufactured by CLEA Japan, Inc.) freely. […] The EGCG concentration in plasma was measured as follows: […] Isocratic elution was performed at a sample injection volume to the column of 20 μL using 0.1% phosphoric acid containing 0.1 mM EDTA·2Na:acetonitrile=90:10 as the mobile phase at a flow rate of 0.4 mL/min. […] The retention time of the EGCG standard substance was 8.0 minutes, and the detection sensitivity was 2 nM. The EGCG concentrations in actual administration solutions were also analyzed again, and it was confirmed that EGCG was administered to the rats in scheduled amounts. Rat plasma collected after administration of each of the administration solutions (i), (ii), (iii), and (iv) was treated and subjected to HPLC analysis as mentioned above. […] In other words, it was considered that most of EGCG in blood was absorbed in blood as an unconjugated free body.

[2] = EGCG absorbability in rats, Camellia sinensis (L.) O. Kuntze extracts versus green tea extracts (Test Example 7); assay type: in vivo; conditions: rat plasma
From the text: For Camellia sinensis (L.) O. Kuntze extracts (Camellia sinensis (L.) O. Kuntze tea hot water extract manufactured by ASAHI SOFT DRINKS CO., Ltd.; lot 1 [i], lot 2 [ii], and lot 3 [iii]) and green tea extracts (green tea hot water extract manufactured by San-Ei Gen F.F.I., Inc.; lot 4 [iv] and lot 5 [v]), absorbability of EGCG by rats were compared. […] During the recuperation period, the rats were fed individually in cages equipped with floor nets and allowed to ingest CE-2 feed (manufactured by CLEA Japan, Inc.) freely. The numbers of samples of the administration solutions are as follows: [i] Camellia sinensis (L.) O. Kuntze extract lot 1-administered group: n=7; [ii] Camellia sinensis (L.) O. Kuntze extract lot 2-administered group: n=7; [iii] Camellia sinensis (L.) O. Kuntze extract lot 3-administered group: n=6; [iv] green tea extract lot 4-administered group:n=5; and [v] green tea extract lot 5-administered group: n=4. […] The EGCG concentration in plasma was measured in the same manner as in Test Example 4. […] Isocratic elution was performed at a sample injection volume to the column of 20 μL using 0.1% phosphoric acid containing 0.1 mM EDTA·2Na:acetonitrile=90:10 as the mobile phase at a flow rate of 0.4 mL/min. […] The EGCG concentrations in actual administration solutions were also analyzed again, and it was confirmed that EGCG was administered to the rats in scheduled amounts. […]

[3] = EGCG absorbability in rats, mixed administration solutions (Test Example 8); assay type: in vivo; conditions: oral, 1 mM EGCG, Fisher's PLSD
From the text: The reason why the significant differences are found in EGCG absorbability between the Camellia sinensis (L.) O. Kuntze extracts and the usual green tea extracts although both are extracts obtained by the same hot-water extraction procedures is probably that substances contained in the extracts differ from each other. That is, the green tea extracts may contain an ingredient which inhibits EGCG absorption, or the Camellia sinensis (L.) O. Kuntze extracts may contain an ingredient which promotes EGCG absorption. In order to gain the chance of investigation of the possibility, an experiment shown in this test example was performed. Specifically, a Camellia sinensis (L.) O. Kuntze extract solution, a usual green tea extract solution, and an EGCG reagent solution were prepared so as to have the same EGCG concentration, and solutions obtained by mixing the solutions in appropriate combination were administered to rats to investigate changes in EGCG absorbability. […] In the same manner as in Test Example 7, the administration solutions were orally administered forcibly to rats mounted with a cannula in the vein, and EGCG concentrations in plasma obtained by blood collection performed with time after administration were measured and converted into areas under curve to compare amounts of EGCG remaining in blood. […]

[4] = Stability of EGCG in the chorionic side HBSS solution; assay type: physicochemical; conditions: chorionic side HBSS solution with 1 mM ascorbic acid, pH 5.5
Description: In addition, the EGCG absorption capacity of the Caco-2 cells was maintained constantly for 4 hours or more by adding 10 mM glutamine to the HBSS solutions of the chorionic side and serosal side in the measurement system.

Caco-2 cell monolayer = test: Transepithelial electrical resistance (TEER) of the Caco-2 cell monolayer; assay type: cell-based, human; conditions: EGCG reagent added at different concentrations to the chorionic side, 3-hour measurement period
Description: The EGCG absorption experiment was performed using a Caco-2 cell monolayer cultured on a Transwell with a diameter of 12 mm (polycarbonate filter culture area: 1.13 cm^2, pore size: 0.4 μm; manufactured by Corning). The Caco-2 cells were inoculated onto an insert of the Transwell at a density of 1.0×10^5 cells/cm^2, and culture was continued while the medium was exchanged for a fresh one every 2 days. Transepithelial electrical resistance (hereinafter, referred to as “TEER”) was measured using a Millicell ERS meter (manufactured by Millipore) to monitor the degree of completion of a tight junction of the cell monolayer, and a monolayer which had been confirmed that formation of the tight junction had been completed was used in the experiment. […]
The medium of the upper part of the Transwell insert on which the Caco-2 cell monolayer was placed (chorionic side) was replaced by a Hanks' Balanced Salt Solution-like Transport Medium having a pH of 5.5 (chorionic side HBSS solution; containing 10 mM MES, 5 mM glucose, 10 mM glutamine, and 1 mM ascorbic acid), and the medium of the lower part of the insert (serosal side) was replaced by HBSS having a pH of 7.4 (serosal side HBSS solution; containing […], 5 mM glucose, 10 mM glutamine, and 1 mM ascorbic acid). […] The cells were incubated for 30 minutes, and TEER was measured again. […]

[5] = Catechin compounds in human plasma after Camellia sinensis (L.) O. Kuntze extract with sodium malate (Test Example 9); assay type: in vivo; conditions: humans, 135 mg with Camellia sinensis (L.) O. Kuntze extract (195 mg catechin compounds), oral; total of five catechin compounds
Description: The effect of malic acid on absorption of a catechin compound in humans was examined. Five healthy men and women which were 20 years old or more and less than 65 years old were selected as test subjects, and a test was performed on the effect of increasing the amount of the catechin compound remaining in blood by ingesting sodium malate simultaneously with the Camellia sinensis (L.) O. Kuntze extract. […]
The test was performed by a crossover test as described below. […] In the same manner as in Test Example 4, concentrations of the catechin compounds in plasma were measured by the HPLC-ECD method (electrochemical detection method). […] As the second phase, concentrations of the catechin compounds in plasma were measured under the same conditions as those in the first phase except that each subject ingested the control substance. It should be noted that the concentrations of the catechin compounds were determined as a total concentration of five kinds of catechin compounds including EGCG, 3″-O-methylepigallocatechin gallate, epigallocatechin, epicatechin gallate, and epicatechin.

SMILES	EGCG absorbed in the form of a conjugate (deconjugation treatment of EGCG permeated to the serosal side) (Caco-2 cells)	Change in EGCG concentration in plasma before and after deconjugation treatments with β-glucuronidase and sulfatase [1]	Change in EGCG concentrations in plasma before and after the deconjugation treatment with β-glucuronidase and sulfatase [2]	Difference in mean values, EGCG concentrations in plasma × time (areas under curve) ([3]; labelled solution vs [ii] EGCG reagent + green tea extract)	Difference in mean values, EGCG concentrations in plasma × time (areas under curve) ([3]; labelled solution vs [iii] Camellia sinensis (L.) O. Kuntze extract + green tea extract)	Stability of EGCG during the absorption experiment period [4]	TEER during the measurement period (Caco-2 cell monolayer)	AUC0→4h of total catechins in plasma relative to ingestion of no sodium malate [5] [times]
O=C(O[C@@H]1Cc2c(O)cc(O)cc2O[C@@H]1c1cc(O)c(O)c(O)c1)c1cc(O)c(O)c(O)c1 [EGCG, epigallocatechin gallate]	no EGCG absorbed in the form of a conjugate	no changes	not changed	0.0052	0.0009	maintained completely and stably	maintained well	–
O=C([O-])CC(O)C(=O)[O-].[Na+].[Na+] (centres unmarked) [sodium malate]	–	–	–	–	–	–	–	1.6
